In PubChem BioAssay (NCI):
Where “and” joins values, the source holds several entries; their conditions need not be identical. Identical values can stand only once.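 All cell lines were grown in 96-well plates and treated with compound for 48 hours. GI50: concentration for 50% inhibition of growth. TGI marks complete inhibition of growth.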 Where a SMILES comes first, the peptide text is derived from it. [ ]: non-standard residue; d: D form. ξ: configuration not given here. Pentanoyl(2-O,4-OH,5-Cl) = O=C(O)C(O)CC(O)CCl; Ile(3ξ) = CCC(C)[C@H](N)C(=O)O; NMeV = CN[C@H](C(=O)O)C(C)C; NMeA = CN[C@@H](C)C(=O)O; βAla = NCCC(=O)O

What was measured:
Experiment in all cases: DTP human tumour cell line panel, 48 h
A549 NSCLC = tested on: A549 NSCLC
DU-145 prostate = tested on: DU-145 prostate
HS 578T breast = tested on: HS 578T breast
NCI-H460 lung = tested on: NCI-H460 lung
NCI/ADR-RES ovarian = tested on: NCI/ADR-RES ovarian
PC-3 prostate = tested on: PC-3 prostate
T-47D breast = tested on: T-47D breast
TK-10 renal = tested on: TK-10 renal
U251 CNS = tested on: U251 CNS
UO-31 renal = tested on: UO-31 renal

Row | SMILES | TGI (A549 NSCLC) | TGI (DU-145 prostate) | TGI (HS 578T breast) | TGI (NCI-H460 lung) | TGI (NCI/ADR-RES ovarian) [µM] | TGI (PC-3 prostate) | TGI (T-47D breast) | TGI (TK-10 renal) | TGI (U251 CNS) | TGI (UO-31 renal) | GI50 (A549 NSCLC) | GI50 (DU-145 prostate) | GI50 (HS 578T breast) | GI50 (NCI-H460 lung) | GI50 (NCI/ADR-RES ovarian) | GI50 (PC-3 prostate) | GI50 (T-47D breast) | GI50 (TK-10 renal) | GI50 (U251 CNS) | GI50 (UO-31 renal)
1 | O=C(c1ccccc1)c1nc2ccc(Cl)cc2cc1C(Br)Br | 3.31 µM | 1.97 µM | 0.59 µM | 1.31 µM | 0.505 | 0.744 µM | 1.12 µM | 1.83 µM | 0.674 µM | 1.27 µM |  |  |  |  |  |  |  |  |  | 
2 | CCC(C)[C@@H]1NC(=O)[C@@H]2CCCN2C(=O)C(CC(O)CCl)OC(=O)CCNC(=O)[C@H](C)N(C)C(=O)[C@H](C(C)C)N(C)C1=O (some centres not stated) (cyclo([Ile(3ξ)][NMeV][NMeA][βAla][Pentanoyl(2-O,4-OH,5-Cl)]P)) | > 100 µM | > 100 µM | > 100 µM | > 100 µM | > 100 | > 100 µM | > 100 µM | > 100 µM | > 100 µM | > 100 µM |  |  |  |  |  |  |  |  |  | 
3 | COc1ccc(-c2nn3ncccc3c2-c2ccnc(Nc3ccc(F)c(F)c3)n2)cc1 | > 25 µM | > 25 µM | > 25 µM | > 25 µM | > 25 | > 25 µM | > 25 µM | > 25 µM | > 25 µM | > 20.9 µM | 7.52 µM | 15.8 µM | 9.2 µM | 7.4 µM | 8.27 µM | 8.7 µM | 6.42 µM | 14.3 µM | 10.3 µM | 5.8 µM
4 | CCOc1ccc2nc3cc(N)ccc3c(N)c2c1 | 28.6 µM and 26.2 µM | 18.3 µM and 19 µM | 9.46 µM and 4.83 µM | 12.6 µM and 15.7 µM | > 100 | 16.1 µM and 12.7 µM | 1.57 µM and 2.4 µM | 46.8 µM and 34.8 µM | 2.49 µM and 2.09 µM | 27.7 µM and 62.8 µM | 9.61 µM and 10.9 µM | 5.65 µM and 6.17 µM | 1.29 µM and 1.03 µM | 3.13 µM and 3.9 µM | 9.69 µM and 24.6 µM | 3.85 µM and 2.99 µM | 0.336 µM and 0.385 µM | 20.9 µM and 12.7 µM | 0.534 µM and 0.476 µM | 3.11 µM and 11.6 µM
5 | CC(C)CC(NC(=O)C(O)C(N)Cc1ccccc1)C(=O)O (configuration not stated) | > 100 µM | > 100 µM | > 100 µM | > 100 µM | > 100 | > 100 µM | > 100 µM | > 100 µM | > 100 µM | > 100 µM |  |  |  |  |  |  |  |  |  | 
6 | COc1cc(-c2csc(NC(=O)Nc3ccc(Cl)cc3)n2)cc(OC)c1OC | 13.4 µM | 17.3 µM | 20.3 µM | > 48.4 µM | 8.65 | 8.39 µM | 6.29 µM | 14.9 µM | 13.1 µM | 7.68 µM | 3.15 µM | 3.4 µM | 3.58 µM | 3.32 µM | 2.7 µM | 2.4 µM | 1.91 µM | 3.25 µM | 3.35 µM | 2.35 µM
7 | CC(C)(Sc1cc(C(C)(C)C)c(O)c(C(C)(C)C)c1)Sc1cc(C(C)(C)C)c(O)c(C(C)(C)C)c1 | > 100 µM | > 100 µM | > 100 µM | > 100 µM | > 100 | > 100 µM | > 100 µM | > 100 µM | > 100 µM | > 100 µM |  |  |  |  |  |  |  |  |  | 
8 | CN1CCN(c2cc(F)c(NC3=C(Cl)C(=O)c4ncccc4C3=O)c(F)c2)CC1 | 16.3 µM | 2.94 µM | 5.67 µM | 8.49 µM | 6.53 | 3.74 µM | 4.61 µM | 3.32 µM | 3.44 µM | 2.72 µM | 4.21 µM | 1.45 µM | 2.02 µM | 2.1 µM | 2.4 µM | 1.6 µM | 1.82 µM | 1.81 µM | 1.8 µM | 1.39 µM
9 | CCCCCOC(=O)c1c(C)[nH]c(/C=C2\N=C(c3ccc[nH]3)C=C2OC)c1C | 0.184 µM | 1.68 µM | 0.172 µM | 1.47 µM | 1.33 | 3.27 µM | 1.37 µM | 1.72 µM | 0.461 µM | 0.0689 µM | 0.0293 µM | 0.0371 µM | 0.0211 µM | 0.0309 µM | 0.0391 µM | 0.0212 µM | 0.0369 µM | 0.047 µM | 0.0219 µM | 0.021 µM
10 | COc1cccc(C2CC(C)(O)Oc3cc4c(cc32)OCO4)c1 (configuration not stated) | > 100 µM | > 100 µM | 49.6 µM | 53.6 µM | 59.3 | > 100 µM | > 100 µM | 80.2 µM | 86.5 µM | 72.2 µM |  |  |  |  |  |  |  |  |  | 
11 | COc1cc2c(cc1OCCCCCOc1ccc(-c3nc4ccccc4s3)cc1)N=C[C@@H]1CCCN1C2=O | 20.4 µM | 13 µM | 7.68 µM | 7.66 µM | 15.6 | 7.04 µM | 4.11 µM | > 57.7 µM | 16.1 µM | 13.4 µM | 5.29 µM | 2.08 µM | 2.02 µM | 1.27 µM | 2.55 µM | 1.14 µM | 0.799 µM | 8.48 µM | 1.47 µM | 2.5 µM
12 | O=C(O)C1CCCN1 (configuration not stated) | > 100 µM | > 100 µM | > 100 µM | > 100 µM | > 100 | > 100 µM | > 100 µM | > 100 µM | > 100 µM | > 100 µM |  |  |  |  |  |  |  |  |  | 
13 | COc1ccc2c(c1[N+](=O)[O-])CC[C@@H]1[C@@H]2CC[C@]2(C)C(=O)CC[C@@H]12 | > 1000 µM | > 1000 µM |  |  | > 1000 |  | > 1000 µM | > 1000 µM | > 1000 µM | > 1000 µM | > 751 µM | > 939 µM | 119 µM | > 756 µM | 515 µM | > 684 µM | 675 µM | 577 µM | 476 µM | > 824 µM
14 | O=C(Nc1ccccc1/C=C/c1n[nH]c2ccccc12)c1ccccc1 | 13.6 µM | 8.23 µM | 17.7 µM | 11.2 µM | 20 | 7.58 µM | 15.8 µM | 16 µM | 3.75 µM | 19.3 µM | 2.47 µM | 2.6 µM | 3.64 µM | 2.15 µM | 4.69 µM | 2.15 µM | 3.77 µM | 4.85 µM | 1.72 µM | 4.14 µM
